Assay results published in ChEMBL document CHEMBL5247641, “Discovery of Potent DYRK2 Inhibitors with High Selectivity, Great Solubility, and Excellent Safety Properties for the Treatment of Prostate Cancer” (J Med Chem, 2023).
Activity calls are given as the source filed them. The calls are words filed in the database; no cut-off is given here.

Key:
CWR22R [1] = experiment: Antimigratory activity against human 22Rv1 cells assessed as inhibition of cell migration at 1 to 8 uM incubated for 24 hrs by transwell migration assay; type: functional, cell-based; conditions: dose 1-8 µM
DU-145 [2] = experiment: Antitumor activity against human DU-145 xenografted in BALB/c nude mouse as upregulation of p27 level in tumor at 100 to 200 mg/kg,po administrated once daily for 21 days by Western blot analysis; type: functional, organism-based; conditions: dose 100-200 mg/kg, time 21.0 day
[3] = Acute toxicity in ICR mouse assessed as change in spleen weight at 1000 to 10000 mg/kg,po and measured after 14 days; type: organism-based; conditions: in vivo, 336 h, dose 1000-10000 mg/kg, time 14 day
CWR22R [4] = experiment: Induction of apoptosis in human 22Rv1 cells assessed as apoptotis rate at 2 uM incubated for 24 hrs by Annexin V-FITC and PI staining based flow cytometry (Rvb= 3.08%); type: functional
DU-145 [5] = experiment: Antiproliferative activity against human DU-145 cells assessed as increase in p27 expression level at 2 to 8 uM incubated for 24 hrs by Western blot analysis; type: functional, cell-based; conditions: dose 2-8 µM
CWR22R [6] = experiment: Induction of cell cycle arrest in human 22Rv1 cells assessed as accumulation of cells at G2 phase at 4 uM incubated for 24 hrs by propidium iodide based flow cytometric analysis (Rvb=24.21 %); type: functional
DU-145 [7] = experiment: Antitumor activity against human DU-145 xenografted in BALB/c nude mouse as upregulation of p53 level in tumor at 100 to 200 mg/kg,po administrated once daily for 21 days by Western blot analysis; type: functional, organism-based; conditions: dose 100-200 mg/kg, time 21.0 day
DU-145 [8] = experiment: Induction of cell cycle arrest in human DU-145 cells assessed as accumulation of cells at S phase at 4 uM incubated for 24 hrs by propidium iodide based flow cytometric analysis (Rvb= 29.02%); type: functional
DU-145 [9] = experiment: Antitumor activity against human DU-145 xenografted in BALB/c nude mouse as upregulation of E-cadherin level in tumor at 100 to 200 mg/kg,po administrated once daily for 21 days by Western blot analysis; type: functional, organism-based; conditions: dose 100-200 mg/kg, time 21.0 day
CWR22R [10] = experiment: Induction of cell cycle arrest in human 22Rv1 cells assessed as accumulation of cells at G2 phase at 2 uM incubated for 24 hrs by propidium iodide based flow cytometric analysis (Rvb=24.21 %); type: functional
DU-145 [11] = experiment: Antiproliferative activity against human DU-145 cells assessed as inhibition of cell proliferation incubated for 3 days by CCK-8 assay; type: functional, cell-based; conditions: DU-145, 72 h
[12] = Toxicity in BALB/c nude mouse xenografted with human DU-145 assessed as body weight change at 100 to 200 mg/kg,po qd administrated once daily for 21 days; type: organism-based; conditions: in vivo, 504 h, dose 100-200 mg/kg, time 21 day
DU-145 [13] = experiment: Induction of cell cycle arrest in human DU-145 cells assessed as accumulation of cells at G2 phase at 2 uM incubated for 24 hrs by propidium iodide based flow cytometric analysis (Rvb= 17.52%); type: functional
CWR22R [14] = experiment: Induction of cell cycle arrest in human 22Rv1 cells assessed as accumulation of cells at G1 phase at 2 uM incubated for 24 hrs by propidium iodide based flow cytometric analysis (Rvb= 55.28%); type: functional
[15] = Cytotoxicity against human RWPE-1 cells assessed as inhibition of cell proliferation incubated for 3 days by CCK-8 assay; type: toxicity, cell-based
CWR22R [16] = experiment: Induction of cell cycle arrest in human 22Rv1 cells assessed as accumulation of cells at S phase at 2 uM incubated for 24 hrs by propidium iodide based flow cytometric analysis (Rvb=20.51 %); type: functional
DU-145 [17] = experiment: Induction of cell cycle arrest in human DU-145 cells assessed as accumulation of cells at G2 phase at 4 uM incubated for 24 hrs by propidium iodide based flow cytometric analysis (Rvb= 17.52%); type: functional
[18] = Acute toxicity in ICR mouse assessed as appearance of lesions in lung at 5000 to 10000 mg/kg,po and measured after 14 days by H and E staining based microscopic analysis; type: organism-based; conditions: in vivo, 336 h, dose 5000-10000 mg/kg, time 14 day
[19] = Acute toxicity in ICR mouse assessed as change in liver weight at 1000 to 10000 mg/kg,po and measured after 14 days; type: organism-based; conditions: in vivo, 336 h, dose 1000-10000 mg/kg, time 14 day
DU-145 [20] = experiment: Induction of cell cycle arrest in human DU-145 cells assessed as accumulation of cells at S phase at 2 uM incubated for 24 hrs by propidium iodide based flow cytometric analysis (Rvb= 29.02%); type: functional
DU-145 [21] = experiment: Antimigratory activity against human DU-145 cells assessed as inhibition of cell migration at 1 to 8 uM incubated for 24 hrs by transwell migration assay; type: functional, cell-based; conditions: dose 1-8 µM
DU-145 [22] = experiment: Antitumor activity against human DU-145 xenografted in BALB/c nude mouse as downregulation of p-4E-BP1 level in tumor at 100 to 200 mg/kg,po administrated once daily for 21 days by Western blot analysis; type: functional, organism-based; conditions: dose 100-200 mg/kg, time 21.0 day
CWR22R [23] = experiment: Induction of apoptosis in human 22Rv1 cells assessed as apoptotis rate at 8 uM incubated for 24 hrs by Annexin V-FITC and PI staining based flow cytometry (Rvb= 3.08%); type: functional
CWR22R [24] = experiment: Induction of cell cycle arrest in human 22Rv1 cells assessed as accumulation of cells at G1 phase at 4 uM incubated for 24 hrs by propidium iodide based flow cytometric analysis (Rvb= 55.28%); type: functional
DU-145 [25] = experiment: Antitumor activity against human DU-145 xenografted in BALB/c nude mouse assessed as tumor growth inhibition at 200 mg/kg,po administrated once daily for 21 days; type: functional, organism-based; conditions: time 21.0 day
DU-145 [26] = experiment: Induction of apoptosis in human DU-145 cells assessed as increase in p53 level at 2 to 8 uM incubated for 24 hrs by Western blot analysis; type: functional, cell-based; conditions: dose 2-8 µM
CWR22R [27] = experiment: Antimigratory activity against human 22Rv1 cells assessed as upregulation of E-cadherin expression level at 2 to 8 uM incubated for 24 hrs by Western blot analysis; type: functional, cell-based; conditions: dose 2-8 µM
DU-145 [28] = experiment: Induction of cell cycle arrest in human DU-145 cells assessed as accumulation of cells at G2 phase at 1 uM incubated for 24 hrs by propidium iodide based flow cytometric analysis (Rvb= 17.52%); type: functional
DU-145 [29] = experiment: Antiproliferative activity against human DU-145 cells assessed as cell growth inhibition at 2 to 8 uM incubated for 5 days by microplate reader analysis; type: functional, cell-based; conditions: dose 2-8 µM, time 5.0 day
[30] = Acute toxicity in ICR mouse assessed as appearance of lesions in kidney at 5000 to 10000 mg/kg,po and measured after 14 days by H and E staining based microscopic analysis; type: organism-based; conditions: in vivo, 336 h, dose 5000-10000 mg/kg, time 14 day
DU-145 [31] = experiment: Antitumor activity against human DU-145 xenografted in BALB/c nude mouse as upregulation of cleaved PARP level in tumor at 100 to 200 mg/kg,po administrated once daily for 21 days by Western blot analysis; type: functional, organism-based; conditions: dose 100-200 mg/kg, time 21.0 day
[32] = Acute toxicity in ICR mouse assessed as abnormal body weight change at 1000 to 10000 mg/kg,po and measured upto 14 days; type: organism-based; conditions: in vivo, 336 h, dose 1000-10000 mg/kg, time < 14 day
[33] = Acute toxicity in ICR mouse assessed as change in heart weight at 1000 to 10000 mg/kg,po and measured after 14 days; type: organism-based; conditions: in vivo, 336 h, dose 1000-10000 mg/kg, time 14 day

Cl.O=C(c1ccc(Nc2ncc(F)c(-c3ccc4scnc4c3)n2)nc1)N1CCNCC1
Activity (CWR22R [1]): Active | Activity (DU-145 [2]): Active | Activity [3]: Non-Toxic | Activity (CWR22R [4]): 11.25% | Activity (DU-145 [5]): Active | Activity (CWR22R [6]): 19.42% | Activity (DU-145 [7]): Active | Activity (DU-145 [8]): 19.37% | Activity (DU-145 [9]): Active | Activity (CWR22R [10]): 22.88% | IC50 (DU-145 [11]): 1.26 µM | Activity [12]: Non-Toxic | Activity (DU-145 [13]): 12.78% | Activity (CWR22R [14]): 62.88% | IC50 at 3 days [15]: 25 µM | Activity (CWR22R [16]): 14.24% | Activity (DU-145 [17]): 12.12% | Activity [18]: Non-Toxic | Activity [19]: Non-Toxic | Activity (DU-145 [20]): 26.15% | Activity (DU-145 [21]): Active | Activity (DU-145 [22]): Active | Activity (CWR22R [23]): 24.04% | Activity (CWR22R [24]): 66.73% | Activity (DU-145 [25]): Active | Activity (DU-145 [26]): Active | Activity (CWR22R [27]): Active | Activity (DU-145 [28]): 17.18% | Activity (DU-145 [29]): Active | Activity [30]: Non-Toxic | Activity (DU-145 [31]): Active | Activity [32]: Non-Toxic | Activity [33]: Non-Toxic
